The target in experiment [1] is T1, D(1B) dopamine receptor (Homo sapiens, UniProt P21918). Nature of the experiment: Binding affinity to human cloned dopamine D5 receptor expressed in HEK 293 cells. The experiment is classed as cell-based, HEK293.
Experiment [2] in a line: Binding affinity to human cloned dopamine D4.4 receptor expressed in CHO cells. The format is cell-based.
Experiment [3] addresses T2, D(2) dopamine receptor (Homo sapiens, UniProt P14416). Nature of the experiment: Displacement of [3H]spiperone from human cloned dopamine D2L receptor expressed in CHO cells. The experiment is classed as cell-based.
The next experiment addresses D(3) dopamine receptor (Homo sapiens, UniProt P35462). Nature of the experiment: Binding affinity to human cloned dopamine D3 receptor expressed in CHO cells. The experiment is classed as cell-based.
Experiment [4] has as its target T3, D(1A) dopamine receptor (Homo sapiens, UniProt P21728). Nature of the experiment: Displacement of [3H]SCH 23390 from human cloned dopamine D1 receptor expressed in HEK 293 cells. The format is cell-based, HEK293. A general note: Loss of bound radioactivity is the signal in a displacement assay; it reports binding, not function.
Experiment [5] concerns the target T1, D(1B) dopamine receptor. Nature of the experiment: Activity at human dopamine D5 receptor assessed as SKF 38393-induced suppression of calcium signal by calcium fluorescence assay. The format is functional.
In experiment [6] the target is T3, D(1A) dopamine receptor. Nature of the experiment: Agonist activity at human dopamine D1 receptor assessed as increase in […] calcium concentration by calcium fluorescence assay. The format is functional.
Experiment [7] addresses T1, D(1B) dopamine receptor. Nature of the experiment: Agonist activity at human dopamine D5 receptor assessed as increase in […] calcium concentration by calcium fluorescence assay. The experiment is classed as functional.
Experiment [8] concerns the target T2, D(2) dopamine receptor. Nature of the experiment: Activity at human dopamine D2 receptor assessed as quinpirol-induced suppression of calcium signal by calcium fluorescence assay. The experiment is classed as functional.
Experiment [9] deals with T2, D(2) dopamine receptor. Nature of the experiment: Agonist activity at human dopamine D2 receptor assessed as increase in […] calcium concentration by calcium fluorescence assay. The format is functional.

The source made the active and inactive calls. The rule behind the calls is not given here.

D(3) dopamine receptor, sequence (P35462 whole entry): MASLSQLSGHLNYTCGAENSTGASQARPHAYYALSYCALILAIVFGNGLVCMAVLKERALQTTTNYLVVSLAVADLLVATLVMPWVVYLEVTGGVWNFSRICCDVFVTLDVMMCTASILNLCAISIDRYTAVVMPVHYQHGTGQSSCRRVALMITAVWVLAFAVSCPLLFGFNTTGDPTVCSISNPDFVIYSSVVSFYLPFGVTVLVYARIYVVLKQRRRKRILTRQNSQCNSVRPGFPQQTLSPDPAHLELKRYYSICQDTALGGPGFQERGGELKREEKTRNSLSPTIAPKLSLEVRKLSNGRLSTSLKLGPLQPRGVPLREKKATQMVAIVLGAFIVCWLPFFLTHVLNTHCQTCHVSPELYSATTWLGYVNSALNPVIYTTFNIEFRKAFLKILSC
T2 sequence (P14416 whole entry): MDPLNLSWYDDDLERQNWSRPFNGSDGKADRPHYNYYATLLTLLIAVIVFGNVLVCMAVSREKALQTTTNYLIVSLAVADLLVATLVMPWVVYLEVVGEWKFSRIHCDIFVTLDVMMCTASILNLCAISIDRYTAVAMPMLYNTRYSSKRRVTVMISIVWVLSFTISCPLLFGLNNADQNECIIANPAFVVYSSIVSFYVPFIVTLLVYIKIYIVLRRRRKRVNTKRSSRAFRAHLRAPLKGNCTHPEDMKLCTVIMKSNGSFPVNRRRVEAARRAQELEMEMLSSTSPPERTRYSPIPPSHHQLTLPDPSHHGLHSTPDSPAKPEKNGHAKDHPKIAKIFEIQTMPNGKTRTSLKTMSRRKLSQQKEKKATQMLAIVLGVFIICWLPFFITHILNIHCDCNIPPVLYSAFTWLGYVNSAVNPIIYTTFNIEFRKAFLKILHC
T3 sequence (P21728 whole entry): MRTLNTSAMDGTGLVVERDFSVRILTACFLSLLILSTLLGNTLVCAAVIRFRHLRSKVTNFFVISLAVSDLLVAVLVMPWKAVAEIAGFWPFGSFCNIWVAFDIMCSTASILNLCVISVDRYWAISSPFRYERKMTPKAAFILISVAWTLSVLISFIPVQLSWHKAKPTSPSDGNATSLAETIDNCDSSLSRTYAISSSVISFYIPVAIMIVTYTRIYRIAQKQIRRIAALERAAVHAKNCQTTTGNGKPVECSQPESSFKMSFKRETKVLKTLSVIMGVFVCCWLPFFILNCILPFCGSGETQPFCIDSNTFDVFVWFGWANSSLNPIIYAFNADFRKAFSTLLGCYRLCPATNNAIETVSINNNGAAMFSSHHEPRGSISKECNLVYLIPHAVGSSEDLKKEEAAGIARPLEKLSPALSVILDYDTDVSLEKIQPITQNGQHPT
T1 sequence (P21918 whole entry): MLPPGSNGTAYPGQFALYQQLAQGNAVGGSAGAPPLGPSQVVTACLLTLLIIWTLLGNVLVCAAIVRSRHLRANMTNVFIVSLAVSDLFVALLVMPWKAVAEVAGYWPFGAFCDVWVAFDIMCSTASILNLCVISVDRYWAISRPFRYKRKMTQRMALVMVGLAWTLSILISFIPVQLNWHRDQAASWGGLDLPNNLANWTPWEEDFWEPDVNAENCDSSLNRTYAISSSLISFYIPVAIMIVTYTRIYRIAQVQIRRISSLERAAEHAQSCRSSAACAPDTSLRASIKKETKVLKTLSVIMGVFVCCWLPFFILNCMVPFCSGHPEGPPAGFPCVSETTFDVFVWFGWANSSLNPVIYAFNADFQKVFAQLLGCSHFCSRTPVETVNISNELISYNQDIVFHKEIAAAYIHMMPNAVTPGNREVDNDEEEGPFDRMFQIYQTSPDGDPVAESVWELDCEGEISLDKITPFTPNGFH

Turning to `COc1ccc2c(c1)CCN(C)CCc1ccccc1C2`, the Ki stood at 38.3 nM on D(1B) dopamine receptor [1] and 43.4 nM in experiment [2].
For `COc1ccc2c(c1)c1c(n2C)Cc2ccccc2CCN(C)CC1`, the Ki on D(2) dopamine receptor [3] stood at 1.7 nM; on D(3) dopamine receptor, 3.78 nM; on D(1A) dopamine receptor [4] it was 2 nM; on D(1B) dopamine receptor [1], 0.23 nM; in experiment [2] it was 21.6 nM.
On to `CN1CCc2ccccc2Cc2[nH]c3ccccc3c2CC1`, for which the result on D(1B) dopamine receptor [5] and at D(2) dopamine receptor [8] was Active. The figures for the Ki (at D(3) dopamine receptor; in experiment [2]) were 40.3 nM and 109 nM, respectively. Moreover, the result at D(1A) dopamine receptor [6], on D(1B) dopamine receptor [7] and on D(2) dopamine receptor [9] was inactive.
As to `CN1CCc2ccccc2Cc2[nH]c3ccc(O)cc3c2CC1`, the Ki on D(2) dopamine receptor [3] worked out at 38.4 nM; at D(3) dopamine receptor it was 944 nM; at D(1A) dopamine receptor [4], 0.56 nM; at D(1B) dopamine receptor [1], 0.39 nM; in [2] it was 398 nM.
For `COc1ccc2c(c1)CCN(C)CCc1c([nH]c3ccccc13)C2`, in that order: 22.8 nM, 1140 nM, 19 nM, 31.5 nM and 92.6 nM.
On to `CN1CCc2cc(O)ccc2Cc2[nH]c3ccccc3c2CC1`, for which the Ki is 74.7 nM on D(2) dopamine receptor [3]; 2070 nM at D(3) dopamine receptor; 3.7 nM on D(1A) dopamine receptor [4]; 5.4 nM on D(1B) dopamine receptor [1]; 1360 nM in experiment [2].
On to `COc1ccc2[nH]c3c(c2c1)CCN(C)CCc1ccccc1C3`, for which the Ki on D(2) dopamine receptor [3] was found to be 11.9 nM; at D(3) dopamine receptor it was 475 nM; at D(1A) dopamine receptor [4] it was 0.82 nM; on D(1B) dopamine receptor [1] it was 3.6 nM; in experiment [2] it was 266 nM.
On to `CN1CCc2ccccc2Cc2ccc(O)cc2CC1`, for which the result at D(1A) dopamine receptor [6] and on D(1B) dopamine receptor [7] was inactive.

By Ki is commonly meant the dissociation constant of the complex between target and ligand, obtained from inhibition or displacement. Read a high Ki as lower affinity.
